How the values were obtained:
[1] = organism: Sus scrofa; assay: Binding affinity to pig ileum opioid receptor; type: tissue-based
[2] = organism: Sus scrofa; assay: Agonist activity at pig ileum opioid receptor; type: tissue-based
[3] = organism: Rattus norvegicus; assay: Narcotic agonist activity in rat by writhing test; type: functional
[4] = organism: Mus musculus; assay: Narcotic agonist activity in mouse by writhing test; type: functional
[5] = system: Rattus norvegicus; assay: Narcotic antagonist activity in sc dosed rat assessed as inhibition of oxymorphone-induced straub tail effect; type: functional
[6] = system: Mus musculus; assay: Narcotic antagonist activity in sc dosed mouse assessed as inhibition of oxymorphone-induced nacrosis; type: functional
[7] = organism: Rattus norvegicus; assay: Narcotic agonist activity in rat by hot plate test; type: functional

Compound	Ke [1]	ID50 [2]	ED50 [3]	ED50 [4]	ED50 [5]	ED50 [6]	ED50 [7]
O=C1CC[C@@]2(O)[C@H]3Cc4ccc(O)c5c4[C@@]2(CCN3CC2CCC2)[C@H]1O5	3 nM	60 nM	0.06 mg/kg	0.39 mg/kg	0.19 mg/kg	0.57 mg/kg	
O=C1CC[C@@]2(O)[C@H]3Cc4ccc(O)c5c4[C@@]2(CCN3CCc2ccccc2)[C@H]1O5							0.014 mg/kg
CN1CC[C@]23c4c5ccc(O)c4O[C@H]2[C@@H](O)C=C[C@H]3[C@H]1C5 [MORPHINE]			0.26 mg/kg	0.8 mg/kg			
CC(C)=CCN1CC[C@]23c4c5ccc(O)c4O[C@H]2C(=O)CC[C@@]3(O)[C@H]1C5 [NALMEXONE]	43 nM	400 nM	0.74 mg/kg	2 mg/kg	1.4 mg/kg	5.6 mg/kg	10.7 mg/kg
C=CCN1CC[C@]23c4c5ccc(O)c4O[C@H]2C(=O)CC[C@@]3(O)[C@H]1C5 [NALOXONE]			> 100 mg/kg	> 100 mg/kg	0.051 mg/kg	0.14 mg/kg	
CN1CC[C@]23c4c5ccc(O)c4O[C@H]2C(=O)CC[C@@]3(O)[C@H]1C5 [OXYMORPHONE]	11.2 nM	12.1 nM	0.02 mg/kg	0.046 mg/kg			0.17 mg/kg
O=C1CC[C@@]2(O)[C@H]3Cc4ccc(O)c5c4[C@@]2(CCN3CC2CC2)[C@H]1O5 [NALTREXONE]	0.38 nM	> 850 nM	0.14 mg/kg	> 100 mg/kg	0.023 mg/kg	0.047 mg/kg	
C=CCN1CC[C@]23c4c5ccc(O)c4O[C@H]2[C@@H](O)C=C[C@H]3[C@H]1C5 [NALORPHINE]		24.3 nM	1 mg/kg		0.9 mg/kg	1.45 mg/kg	
